Test results taken from paper doi:10.1101/2025.03.13.642871v2 (biorxiv, 2026).

What was measured:
p300 = p300 (Homo sapiens, UniProt Q09472); assay: cell-free H3K27 acetylation, immunoblot; assay type: biochemical
CREBBP = CREBBP (Homo sapiens, UniProt Q92793); assay: cell-free H3K27 acetylation, immunoblot; assay type: biochemical
p300 bromodomain = molecular target: T1, p300 bromodomain (Homo sapiens, UniProt Q09472); assay: SPR, single-cycle kinetics, NTA chip; assay type: binding
T1 sequence (Q09472 1049-1156 limits assumed): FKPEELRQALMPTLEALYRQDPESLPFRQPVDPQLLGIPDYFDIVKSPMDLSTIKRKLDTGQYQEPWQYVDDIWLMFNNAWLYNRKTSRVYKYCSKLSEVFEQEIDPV

p300, sequence (Q09472 2-2414): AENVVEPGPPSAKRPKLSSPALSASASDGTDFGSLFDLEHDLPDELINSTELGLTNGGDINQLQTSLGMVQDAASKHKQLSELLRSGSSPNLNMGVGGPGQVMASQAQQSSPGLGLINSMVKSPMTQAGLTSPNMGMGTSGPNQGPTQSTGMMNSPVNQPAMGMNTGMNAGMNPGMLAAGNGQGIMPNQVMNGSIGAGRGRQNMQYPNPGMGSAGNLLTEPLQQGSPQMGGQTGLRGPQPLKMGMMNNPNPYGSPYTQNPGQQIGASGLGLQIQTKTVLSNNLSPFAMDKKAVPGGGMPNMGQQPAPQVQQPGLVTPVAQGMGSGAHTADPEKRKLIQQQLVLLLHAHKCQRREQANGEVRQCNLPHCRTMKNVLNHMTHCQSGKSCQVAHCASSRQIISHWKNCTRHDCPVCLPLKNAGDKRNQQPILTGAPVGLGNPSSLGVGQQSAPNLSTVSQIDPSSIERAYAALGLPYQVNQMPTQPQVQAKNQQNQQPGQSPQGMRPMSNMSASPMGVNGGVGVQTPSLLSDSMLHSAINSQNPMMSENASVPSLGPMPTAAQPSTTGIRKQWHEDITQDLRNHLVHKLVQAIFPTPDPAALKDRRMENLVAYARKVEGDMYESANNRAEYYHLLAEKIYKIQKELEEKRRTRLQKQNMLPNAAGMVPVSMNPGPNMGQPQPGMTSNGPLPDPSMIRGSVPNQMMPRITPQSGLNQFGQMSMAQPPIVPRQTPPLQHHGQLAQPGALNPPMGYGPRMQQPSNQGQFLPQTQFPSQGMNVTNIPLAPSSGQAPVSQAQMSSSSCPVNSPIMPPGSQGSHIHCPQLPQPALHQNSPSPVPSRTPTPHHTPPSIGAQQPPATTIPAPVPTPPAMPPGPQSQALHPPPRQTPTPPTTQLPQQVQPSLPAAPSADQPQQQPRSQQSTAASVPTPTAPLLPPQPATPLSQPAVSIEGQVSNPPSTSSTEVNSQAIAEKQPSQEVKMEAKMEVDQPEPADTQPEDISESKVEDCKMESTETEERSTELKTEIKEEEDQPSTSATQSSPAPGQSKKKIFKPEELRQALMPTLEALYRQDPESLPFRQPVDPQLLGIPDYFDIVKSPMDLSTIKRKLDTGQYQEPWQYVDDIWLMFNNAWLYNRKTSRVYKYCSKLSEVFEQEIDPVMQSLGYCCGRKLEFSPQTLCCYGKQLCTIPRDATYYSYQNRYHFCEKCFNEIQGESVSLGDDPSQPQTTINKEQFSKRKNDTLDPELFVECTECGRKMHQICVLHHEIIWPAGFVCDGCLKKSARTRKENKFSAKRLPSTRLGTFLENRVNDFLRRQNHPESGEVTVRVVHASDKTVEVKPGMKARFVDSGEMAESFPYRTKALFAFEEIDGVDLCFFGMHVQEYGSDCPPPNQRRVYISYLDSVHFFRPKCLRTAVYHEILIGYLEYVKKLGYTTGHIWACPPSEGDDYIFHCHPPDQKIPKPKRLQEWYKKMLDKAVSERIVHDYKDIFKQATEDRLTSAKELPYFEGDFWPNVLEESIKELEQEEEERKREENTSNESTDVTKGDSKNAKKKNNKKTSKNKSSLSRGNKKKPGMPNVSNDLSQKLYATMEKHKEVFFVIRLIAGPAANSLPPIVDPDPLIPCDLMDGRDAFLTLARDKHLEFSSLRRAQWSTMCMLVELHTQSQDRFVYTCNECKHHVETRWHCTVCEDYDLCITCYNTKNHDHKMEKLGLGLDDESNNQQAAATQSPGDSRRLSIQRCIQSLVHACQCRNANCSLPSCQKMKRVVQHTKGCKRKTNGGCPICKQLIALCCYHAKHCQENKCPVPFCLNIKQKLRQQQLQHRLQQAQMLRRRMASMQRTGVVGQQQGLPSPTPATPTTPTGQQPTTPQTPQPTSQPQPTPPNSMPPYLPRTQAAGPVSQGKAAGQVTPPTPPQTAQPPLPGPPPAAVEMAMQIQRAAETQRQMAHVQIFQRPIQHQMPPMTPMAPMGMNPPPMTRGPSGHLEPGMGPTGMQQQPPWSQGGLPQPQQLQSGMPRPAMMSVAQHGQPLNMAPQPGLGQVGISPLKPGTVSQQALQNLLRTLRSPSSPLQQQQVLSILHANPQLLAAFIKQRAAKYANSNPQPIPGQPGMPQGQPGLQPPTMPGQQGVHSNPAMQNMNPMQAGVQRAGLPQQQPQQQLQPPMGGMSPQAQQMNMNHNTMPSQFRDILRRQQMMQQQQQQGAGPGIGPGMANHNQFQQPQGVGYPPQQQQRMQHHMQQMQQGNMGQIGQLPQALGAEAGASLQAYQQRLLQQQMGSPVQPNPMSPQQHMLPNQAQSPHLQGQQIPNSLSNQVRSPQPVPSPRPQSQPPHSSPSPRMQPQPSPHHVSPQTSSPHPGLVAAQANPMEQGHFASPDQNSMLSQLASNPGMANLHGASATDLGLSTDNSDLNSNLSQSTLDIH
CREBBP, sequence (Q92793 2-2442): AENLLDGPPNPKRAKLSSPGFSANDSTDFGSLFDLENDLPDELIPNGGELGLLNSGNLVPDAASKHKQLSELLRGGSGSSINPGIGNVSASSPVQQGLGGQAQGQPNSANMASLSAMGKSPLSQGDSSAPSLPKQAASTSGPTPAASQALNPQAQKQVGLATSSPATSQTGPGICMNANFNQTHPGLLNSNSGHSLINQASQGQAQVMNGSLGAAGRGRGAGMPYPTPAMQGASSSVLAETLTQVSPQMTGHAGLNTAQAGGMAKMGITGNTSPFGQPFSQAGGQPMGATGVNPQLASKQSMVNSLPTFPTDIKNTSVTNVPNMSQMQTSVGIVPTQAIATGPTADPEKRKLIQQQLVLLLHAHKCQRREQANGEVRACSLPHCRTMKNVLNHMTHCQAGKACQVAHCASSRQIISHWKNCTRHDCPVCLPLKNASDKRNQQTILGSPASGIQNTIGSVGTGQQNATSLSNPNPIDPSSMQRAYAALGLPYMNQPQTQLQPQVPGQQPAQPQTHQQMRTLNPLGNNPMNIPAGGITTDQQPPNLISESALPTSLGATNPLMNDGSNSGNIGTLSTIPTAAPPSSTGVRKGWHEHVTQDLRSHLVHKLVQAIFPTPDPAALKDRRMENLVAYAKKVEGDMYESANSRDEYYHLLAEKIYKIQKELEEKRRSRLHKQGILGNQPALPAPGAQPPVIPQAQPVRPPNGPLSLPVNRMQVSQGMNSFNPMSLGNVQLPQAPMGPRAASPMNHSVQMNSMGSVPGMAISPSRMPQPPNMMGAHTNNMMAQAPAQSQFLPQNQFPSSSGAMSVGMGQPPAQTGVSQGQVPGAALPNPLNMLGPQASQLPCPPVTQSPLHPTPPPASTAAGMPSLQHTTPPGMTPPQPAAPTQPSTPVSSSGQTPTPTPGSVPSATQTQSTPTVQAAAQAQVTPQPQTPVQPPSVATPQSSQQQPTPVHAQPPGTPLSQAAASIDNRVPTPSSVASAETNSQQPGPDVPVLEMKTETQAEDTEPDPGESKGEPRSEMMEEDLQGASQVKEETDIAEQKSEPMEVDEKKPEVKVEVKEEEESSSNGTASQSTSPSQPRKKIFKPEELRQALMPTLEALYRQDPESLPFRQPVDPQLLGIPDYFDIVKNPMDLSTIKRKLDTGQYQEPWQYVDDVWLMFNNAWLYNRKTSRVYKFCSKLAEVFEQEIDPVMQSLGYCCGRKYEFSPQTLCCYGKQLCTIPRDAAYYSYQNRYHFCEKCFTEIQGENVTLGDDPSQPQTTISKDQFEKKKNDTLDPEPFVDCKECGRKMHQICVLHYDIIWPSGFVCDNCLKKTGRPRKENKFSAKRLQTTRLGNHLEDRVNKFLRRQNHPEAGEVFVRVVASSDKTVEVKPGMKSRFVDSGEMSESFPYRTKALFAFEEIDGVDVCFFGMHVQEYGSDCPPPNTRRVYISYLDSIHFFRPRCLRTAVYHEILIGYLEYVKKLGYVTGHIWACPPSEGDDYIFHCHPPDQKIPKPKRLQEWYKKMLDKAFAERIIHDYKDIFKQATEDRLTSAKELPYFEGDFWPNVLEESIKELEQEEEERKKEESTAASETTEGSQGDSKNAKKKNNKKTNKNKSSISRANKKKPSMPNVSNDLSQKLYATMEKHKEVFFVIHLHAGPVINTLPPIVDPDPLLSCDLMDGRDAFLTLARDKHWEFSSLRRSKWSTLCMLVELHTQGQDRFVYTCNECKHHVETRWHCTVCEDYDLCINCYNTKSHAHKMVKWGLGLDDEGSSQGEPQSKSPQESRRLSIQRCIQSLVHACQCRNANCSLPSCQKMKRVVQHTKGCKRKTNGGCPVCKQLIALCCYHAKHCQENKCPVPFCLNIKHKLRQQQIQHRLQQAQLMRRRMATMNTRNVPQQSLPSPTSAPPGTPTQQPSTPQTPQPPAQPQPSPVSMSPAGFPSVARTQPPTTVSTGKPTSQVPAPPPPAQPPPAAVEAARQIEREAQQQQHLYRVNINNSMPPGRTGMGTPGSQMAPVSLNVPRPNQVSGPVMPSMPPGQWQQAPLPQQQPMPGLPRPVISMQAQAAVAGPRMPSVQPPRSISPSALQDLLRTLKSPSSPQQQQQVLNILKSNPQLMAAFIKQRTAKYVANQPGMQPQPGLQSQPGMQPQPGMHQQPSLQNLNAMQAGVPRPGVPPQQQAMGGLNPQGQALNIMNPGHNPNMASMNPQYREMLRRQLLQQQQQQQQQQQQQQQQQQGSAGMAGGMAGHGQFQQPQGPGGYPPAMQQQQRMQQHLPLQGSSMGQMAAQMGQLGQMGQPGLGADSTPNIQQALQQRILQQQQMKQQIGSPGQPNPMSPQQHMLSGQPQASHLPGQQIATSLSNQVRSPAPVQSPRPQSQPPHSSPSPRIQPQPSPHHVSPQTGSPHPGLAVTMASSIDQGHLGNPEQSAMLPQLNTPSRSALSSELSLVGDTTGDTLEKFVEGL

EC50 (p300): 4.32 µM
EC50 (CREBBP): 15.8 µM
Kd (p300 bromodomain): 4.42 µM
Compound: CCOc1cccc(OCCN(C)C)c1C(=O)Nc1ccc(Cl)c(C(F)(F)F)c1 [YF2]
